# Experimental data taken from US12370170B2, “Composition comprising naphthoquinone-based compound as active ingredient, for preventing or ameliorating fatigue, cachexia, pain, cognitive decline and hematopoietic stem cell reduction which are side effects related to anticancer drug treatment” (NADIANBIO LTD., priority 2016, dated 2025).
# What was measured:
# Type in all cases: in vivo, C57BL/6 mice
# [1] = test system: inflammatory cytokines TNF-α, IL-1β, IL-6 and IL-17; assay: Plasma inflammatory cytokines by ELISA in adriamycin animal model; conditions: adriamycin 4 mg/kg/day i.p. ×3; compound 20 mg/kg oral daily from 3 days before; 4 days after final adriamycin; vs adriamycin group
# Description: (§1) In this invention, 11 weeks old C57BL/6 mice were used. All the mice used in the experiments of the invention were raised in an aseptic animal room at the temperature of 22˜26 L with the humidity of 55˜60%. The mice were allowed to take general solid feed (SAMTACO Co., Ltd., Korea) and water freely. The mice were adapted for 1 week before the experiment. All the experiments were performed after obtaining approval from the clinical trial management committee in accordance with the laboratory animal care and ethics regulations of Wonkwang University. The mouse animal model of the present invention was treated with different anticancer drugs. […]
# Particularly, plasma was isolated from the adriamycin animal model prepared by the same manner as described in Example 4, and the inflammatory cytokines TNF-α (R&D Systems, MTA00B), IL-1β (R&D Systems, MLB00C), IL-6 (R&D Systems, M6000B) and IL-17 (R&D Systems, M1700) were analyzed by ELISA (enzyme-linked immunosorbent assay).
# To investigate the regulatory effect of β-lapachone on adriamycin induced inflammatory cytokines, plasma was isolated from the adriamycin animal model prepared by the same manner as described in Example 4, and the inflammatory cytokines TNF-α, IL-1β, IL-6 and IL-17 were analyzed by ELISA.
# [2] = test system: orexin; assay: Orexin protein in hypothalamus by ELISA, 4×ACP animal model; conditions: β-lapachone 20 mg/kg oral daily from 3 days before, 2 days after ACP
# Description: as §1, with “drugs. Particularly, one kind of anticancer drug was administered intraperitoneally one time or more, or several kinds of anticancer drugs were administered once or more times or at different concentrations, leading to the establishment of the animal model of the invention.” for “drugs.”
# To analyze orexin protein in the 4×ACP animal model prepared by the same manner as described in Example 8, the hypothalamus of the mouse was extracted, followed by the preparation of a homogenate. Orexin (MyBioSource, MBS2505504) was analyzed by ELISA to investigate the regulatory effect of β-lapachone on orexin.
# [3] = test system: inflammatory cytokines TNF-α and IL-1β; assay: Brain inflammatory response: TNF-α and IL-1β in hypothalamus (RT-PCR, ELISA), 4×ACP animal model; conditions: β-lapachone 20 mg/kg oral, ELISA of homogenate
# Description: In this invention, 11 weeks old C57BL/6 mice were used. All the mice used in the experiments of the invention were raised in an aseptic animal room at the temperature of 22˜26 L with the humidity of 55˜60%. The mice were allowed to take general solid feed (SAMTACO Co., Ltd., Korea) and water freely. The mice were adapted for 1 week before the experiment. All the experiments were performed after obtaining approval from the clinical trial management committee in accordance with the laboratory animal care and ethics regulations of Wonkwang University. The mouse animal model of the present invention was treated with different anticancer drugs. Particularly, one kind of anticancer drug was administered intraperitoneally one time or more, or several kinds of anticancer drugs were administered once or more times or at different concentrations, leading to the establishment of the animal model of the invention. In the adriamycin-induced animal model, the mice were divided into 6 groups as follows: the control group administered with PBS (Control, 5 mice), the group administered intraperitoneally with adriamycin (4 mg/kg/day) 3 times (ADR, 5 mice), the group administered orally with dunnione or β-lapachone from 3 days before the adriamycin treatment daily (20 mg/kg, 5 mice), and the group administered with dunnione or β-lapachone (20 mg/kg, 5 mice). 4 days after the final adriamycin treatment, analysis of the mice was performed.
# The present inventors established an animal model co-treated with three different anticancer drugs in this experiment. The anticancer drugs used herein were adriamycin (ADR), cyclophosphamide (CYP) and paclitaxel (PTX), which were indicated as ACP. […]
# A homogenate was prepared with the mouse hypothalamus extracted from the 4×ACP animal model prepared by the same manner as described in Example 8. Then, the expressions of the inflammatory cytokines TNF-α and IL-1β in the brain tissue were analyzed by ELISA.
structure (smiles),measurement,setting,value
"CC1(C)CCC2=C(O1)c1ccccc1C(=O)C2=O [β-lapachone, 3,4-Dihydro-2,2-dimethyl-2H-naphtho(1,2-b) pyran-5,6-dione]","level of inflammatory cytokines (TNF-α, IL-1β, IL-6, IL-17) in plasma",[1],significantly reduced
same,orexin reduction in the hypothalamus,[2],significantly restored
same,up-regulations of TNF-α and IL-1β in the hypothalamus,[3],significantly suppressed
